The values below come from patent publication US6495376B1, “Methods and compositions for regulating protein-protein interactions” (Beth Israel Deaconess Medical Center, priority 1999, dated 2002).

In one series the target is T1, Pin1^R14A (Homo sapiens, UniProt Q13526, R14A).
T1 construct: mitotic HeLa cell extracts incubated with the entire Pin1 protein or its WW-domain; GST or His (N); made in house
Put plainly: ELISA peptide binding to Pin1^R14A. To be noted: mutant Pin1^R14A.

The target in a further series is Pin1 (Homo sapiens, UniProt Q13526). Put plainly: ELISA peptide binding to Pin1. To be noted: Pin1.
Sequence of Pin1 (Q13526 whole entry): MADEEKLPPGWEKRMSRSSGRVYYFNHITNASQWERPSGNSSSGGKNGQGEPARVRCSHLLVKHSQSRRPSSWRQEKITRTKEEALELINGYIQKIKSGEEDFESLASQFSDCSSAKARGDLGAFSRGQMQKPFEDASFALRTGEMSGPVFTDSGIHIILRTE
Another series has as its target T2, Pin1^Y23A (Homo sapiens, UniProt Q13526, Y23A).
T2 construct: mitotic HeLa cell extracts incubated with the entire Pin1 protein or its WW-domain; GST or His (N); made in house
Put plainly: ELISA peptide binding to Pin1^Y23A. To be noted: mutant Pin1^Y23A.

Series [1] deals with EQPLpTPVTDL (Cdc25 Peptide). Description: Fluorescence anisotropy binding to fluorescein-labeled phosphorylated Cdc25 peptide. To be noted: GST-WW-domains.
A further series addresses WFYpSPFLE (Pintide). Description: Fluorescence anisotropy (polarization) binding to fluorescein-labeled phosphorylated Pintide analogue. To be noted: for Kd for Pintide (μM): fluorescein labeled Pintide, high affinity pSer-binding site in the WW-domain. From the text:
To determine the affinity of Pin1, and its WW or PPIase domain for phosphopeptides, peptides were labeled with fluorescein and their interactions with Pin1 measured using quantitative fluorescence anisotrophy. To prevent nonspecific labeling, a Pintide analogue (WFYpSPFLE) SEQ ID NO: 9 was used, which binds Pin1 with a high affinity based on the peptide library screen as described by (Lu, K. P. et al., U.S. Ser. No. 60/058,164 (1997), the teachings of which are incorporated herein in their entirety.
(§1) Pintide and its nonphosphorylated counterpart were synthesized and incubated with GST-Pin1 or the GST-WW-domain of Pin1 in a binding buffer, using established procedures (Shen, M. et al., Genes & Dev 12:706 (1998)). After a 1 hr incubation, mitotic HeLa cell extracts were added and subjected to GST pull down experiments, followed by immunoblotting analysis using the MPM-2 antibody. To obtain semi-quantitative data, films of immunoblots were scanned at the region of 55 kDa, the major Pin1-binding protein, and data analyzed using ImageQuan (ScanJet II CX). The peptide binding constants were measured using a fluorescence polarization assay (Jiskoot, W. et al., Anal Biochem 196:421 (1991)). Peptides were fluorescein labeled at the N-terminus using the Fluorescein Amine Labeling Kit (Pan Vera Corp.) and purified by TLC according to the manufacturer's […]. To prevent nonspecific labeling, a Pintide analogue (WFYpSPFLE) SEQ ID NO: 8 and the nonphosphorylated control were used. Various concentrations of Pin1 and its mutant proteins were incubated with 0.1 μM of the labeled peptides in a binding buffer containing 50 mM HEPES, pH 7.4, 100 mM NaCl, 2% glycerol. Fluorescence polarization values were obtained using a Pan Vera Beacon 2000 system, as described by the manufacturer.

Another series deals with WFYSPFLE
Put plainly: Fluorescence anisotropy binding to fluorescein-labeled nonphosphorylated control peptide. To be noted: GST-WW-domains, N.B., not binding detected.

In series [2] the target is […] (Cdc25 Peptide, nonphosphorylated). Put plainly: GST-WW-domain incubated with peptide on a membrane, immunoblotting with GST antibody. The series is classed as binding.
The subject of series [3] is MPM-2 antigens (mitotic phosphoproteins) of mitotic HeLa cell extracts. Put plainly: GST pulldown from mitotic HeLa cell extracts, MPM-2 immunoblotting (phosphoprotein-binding activity). To be noted: for binding to mitotic phosphoproteins / MPM-2 antigens (in words): mitotic HeLa cell extracts; for Phosphoprotein binding activity: GST-fusion proteins with mitotic extracts, MPM2 antibody. The protocol:
GST-fusion proteins containing the WW-domain, PPIase-domain or the entire Pin 1 protein were prepared and incubated with interphase (G1/S arrested; Control) or dividing (M phase) HeLa cell extracts using well-known procedures (Lu, K. P., et al., Nature 380:544 (1996); (Shen, M., et al., Genes & Devl. 12:706 (1998)). Briefly, HeLa cells were arrested at the G1/S boundary or mitosis by incubation with thymidine and aphidicolin or nocodazole for 16 h, respectively. The cells were lysed and supernatants incubated with 10 μl of agarose beads containing GST-Pin1; GST-WW-domain of Pin1; GST-PPIase domain of Pin1; or control GST for 2 h at 4° C. The phosphorylated precipitated proteins were washed 5 times in buffer containing 1% Triton X-100 before subjecting to immunoblotting analysis using MPM-2 antibody, as described previously (Yaffe, M. B. et al., Science 278:1957 (1997); Schukowski, et al., Biochemistry 37:5566 (1998); Shen, M. et al., Genes & Dev 12:706 (1998)). MPM-2 recognizes a subset of mitotic phosphoproteins including Pin1-binding proteins such as cdc25.
as §1
To examine the effect of Pin1 phosphorylation on Pin1 binding to ligands, Pin1 and Pin1 mutant proteins were incubated with the catalytic subunit of PKA and PKC (a mixture of α, β and γ, UBI) in a kinase reaction buffer containing 500 μM cold ATP at 30° C. for 15 min (Lu, K. P. et al., Anal. Biochem. 196:421 (1991)). The reactions were stopped by adding SDS sample buffer and reaction products separated on SDS-gels, followed by autoradiography. Pin1 proteins were isolated and used to bind MPM-2 antigens from mitotic extracts from HeLa cells, as previously described (Shen, M., et al., Genes & Dev 12:706 (1998)). Experiments were also performed with PKA and PKC, casein kinase, cyclin B/Cdc2 and SRPK1 kinases.

Another series relates to peptide substrate. Put plainly: PPIase activity assay with peptide substrate. The series is classed as biochemical. To be noted: relative to wild-type protein defined as 100%.
For series [4], the system named is temperature-sensitive ptf1 yeast mutant (YPM2). Description: Rescue of temperature-sensitive ptf1 yeast mutant (in vivo function). To be noted: YPM2 cells, restrictive temperature. The series is classed as cell-based. The protocol:
Given the essential role of the WW-domain in conferring Pin1-binding specificity in vitro, a critical question is whether this domain is important in vivo. To address this question, experiments using the PIN1 yeast homologue, ESS1/PTF1 were performed. ESS1/PTF1 is essential for cell growth and human Pin1 can carry out this essential function when transfected into yeast cells (Lu, K. P. et al., Nature 380:544 (1996); Hanes, S. D. et al., Yeast 5:55 (1989); Hani, J. et al., FEBS Lett. 365:198 (1995)). A temperature-sensitive ptf1 mutant strain, YPM2, grows at the permissive temperature (23° C.), but not at the restrictive temperature (30° C.) (Hanes, S. D. et al., Yeast 5:55 (1989); Hani, J. et al., FEBS Lett. 365:198 (1995)). This phenotype is completely rescued by a 1.5 kb PTF1 genomic fragment, which also contains the promoter and the 3′ processing sequence (FIG. 3). To insure that all human Pin1 proteins were expressed at physiological levels under normal regulation, the coding sequence of the fully functional ESS1/PTF1 gene in a Yepvector was replaced with the coding sequence of the human PIN1 (or Pin1 mutant) cDNA (FIG. 3) and transformed into a temperature-sensitive ptf1 strain. Transformants were selected on minimal media minus Leu at the permissive temperature (23° C.) and protein expression was detected by immunoblotting analysis using 12CA5 monoclonal antibody specific for the HA epitope tag inserted at the N-terminus. […] Those strains expressing similar levels of Pin1 and Pin1 mutants were grown at permissive and nonpermissive temperature.

The test system of the next series is tau-promoted MT assembly. Description: Microtubule assembly light-scattering assay (turbidity at 350 nm). The series is classed as biochemical. To be noted: 0.05 mg/ml protein, 0.05 mg/ml tau. The protocol: The effect of Pin1 on the ability of phosphorylated tau to promote MT assembly was determined using light-scattering assays (Bramblett, G. T. et al., Neuron 10:1089-1099(1993); Alonso, A. C. et al., Proc Natl Acad Sci USA 91:5562-5566 (1994); Busciglio, J. et al., Neuron 14:879-888 (1995)). Briefly, MTs were assembled from phosphocellulose purified bovine tubulin (Cytoskeleton, Inc) and stabilized by Taxol. The nonphosphorylated or Cdc2 phosphorylated recombinant tau (0.1 mg/ml) was incubated with Pin1 (0.1 mg/ml) at 35° C. for 5 min before adding to the MTs. Bound tau was isolated by centrifugation (50,000×g) at 25° C. for 20 min, followed by immunoblotting analysis using CP27 and Pin1 antibodies. The ability of tau to promote MT assembly was determined using well established light-scattering assays. Briefly, the assembly of MTs was initiated by incubating tubulin (2 mg/ml) with or without tau (0.05 mg/ml) in 80 mM PIPES, pH 6.8, 1 mM EGTA, 1 mM MgCl2, 1 mM GTP, 20% glycerol at 35° C. for 2 min. The mixture was then transferred to a 100 μl cuvet and the rate of the MT assembly was monitored at room temperature using the turbidity increase at 350 nm. To examine the effect of Pin1, Pin1 or its mutant (0.05 mg/ml) was pre-incubated with tau or Cdc2 phosphorylated tau (0.05 mg/ml) at 35° C. for 5 min before the MT assembly assays.
Sequence of tau-promoted MT assembly (P10636 45-219 isoform P10636-2 limits assumed): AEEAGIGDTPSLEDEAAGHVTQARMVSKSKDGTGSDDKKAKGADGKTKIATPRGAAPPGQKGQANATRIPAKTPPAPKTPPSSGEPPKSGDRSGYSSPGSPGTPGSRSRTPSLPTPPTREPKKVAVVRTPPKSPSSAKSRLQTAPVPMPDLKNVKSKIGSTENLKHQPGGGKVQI

Setting [5] is: low affinity binding site, read-out: WFYpSPFLE Kd(μM) Low affinity.

Where two headings read alike, the source gives them in different places.

T1 sequence (Q13526 whole entry R14A): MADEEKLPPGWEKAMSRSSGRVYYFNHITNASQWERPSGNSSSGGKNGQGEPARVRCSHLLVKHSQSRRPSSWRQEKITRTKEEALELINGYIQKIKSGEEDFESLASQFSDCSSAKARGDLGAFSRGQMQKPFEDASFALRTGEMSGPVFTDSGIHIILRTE
T2 sequence (Q13526 whole entry Y23A): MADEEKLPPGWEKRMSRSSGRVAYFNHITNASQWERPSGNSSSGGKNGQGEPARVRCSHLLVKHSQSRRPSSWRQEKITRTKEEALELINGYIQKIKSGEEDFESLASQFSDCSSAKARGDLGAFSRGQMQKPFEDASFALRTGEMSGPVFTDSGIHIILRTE

Take `CC(C)[C@H](NC(=O)[C@H](C)NC(=O)[C@@H](NC(=O)[C@@H](N)CCCCN)C(C)C)C(=O)N[C@H](C(=O)N[C@@H](CCCNC(=N)N)C(=O)N[C@H](C(=O)N1CCC[C@H]1C(=O)N1CCC[C@H]1C(=O)N[C@@H](CCCCN)C(=O)N[C@@H](CO)C(=O)N1CCC[C@H]1C(=O)N[C@@H](CO)C(=O)O)[C@@H](C)OP(=O)(O)O)C(C)C` [pT-231]: the “Binding (OD@405 nm), tau peptide” value on Pin1^R14A turned out to be 1.30 OD@405 nm; on Pin1^Y23A, 0.00 OD@405 nm. Also, the “Binding (OD@405 nm), tau peptides” value at Pin1 stood at 1.46 OD@405 nm.
With “Nedd4 WW-domain: GST-WW-domain of ubiquitin ligase Nedd4; text ties Table 1 to WW-domain-2”, the Kd in series [1] was found to be 20 µM; on WFYpSPFLE (Pintide) (GST-WW-domains, fluorescein-labeled peptide, average of three independent experiments, read-out: Kd (μM) Pintide WFYpSPFLE), 10 µM. In addition, the “Kd (μM) Pintide nonphosphorylated WFYSPFLE” value on WFYSPFLE is “N.B”; on WFYSPFLE (listed as WW-domain of Nedd4) it was “did not bind”. Also, the “Kd (μM) Cdc25 Peptide EQPLTPVTDL” value in series [2] was “N.B.*”. The “binding to mitotic phosphoproteins / MPM-2 antigens (in words)” value in [3] is reported as “bound only a few MPM-2 antigens”.
Take “Pin1^S16E: Pin1 with Ser-16 mutated to Glu”: on WFYpSPFLE (Pintide) (high affinity binding site), the “WFYpSPFLE Kd(μM) High affinity” value is given as “no high affinity-binding site”. Moreover, the Kd at WFYpSPFLE (Pintide) (setting [5]) amounted to 10.5 µM. Further, in the series on peptide substrate, the “PPlase Activity (%)” value was determined as 95%. Besides, the “complementation of temperature-sensitive ptf1 phenotype (in words)” value (“complementation” below) in series [4] is “abolish the ability of Pin1 to support cell growth”. Moreover, in [3], the Phosphoprotein binding activity entry is “−” and the “binding to mitotic phosphoproteins / MPM-2 antigens (in words)” value is “failed to bind mitotic phosphoproteins”.
“Pin1^W34A: Pin1 with single Ala point mutation of Trp-34 in the WW-domain”: the “Kd for Pintide (μM)” value on WFYpSPFLE (Pintide) is “N.B”. Besides, at WFYpSPFLE (Pintide) (setting [5]), the Kd was 14 µM. Besides, the “PPlase Activity (%)” value in the series with peptide substrate is 94%. In series [4], the “complementation” value is on record as “abolish the ability of Pin1 to support cell growth”. Moreover, in series [3], the Phosphoprotein binding activity entry was “−” and the “binding to mitotic phosphoproteins / MPM-2 antigens (in words)” value is listed as “completely abolished”.
As to “Pin1^Y23A: Pin1 with single Ala point mutation of Tyr-23 in the WW-domain”, the “Kd for Pintide (μM)” value at WFYpSPFLE (Pintide) is listed as “N.B”. Moreover, the Kd at WFYpSPFLE (Pintide) (setting [5]) was determined as 13.5 µM. Further, the “effect on ability of Cdc2 phosphorylated tau to promote MT assembly” value in the series on tau-promoted MT assembly is reported as “did not have any effect”. The “PPlase Activity (%)” value in the series on peptide substrate stood at 85%. Also, in series [4], the “complementation” value was “abolish the ability of Pin1 to support cell growth”. In [3], the Phosphoprotein binding activity result is “−” and the “binding to mitotic phosphoproteins / MPM-2 antigens (in words)” value is listed as “completely abolished”.
